Data published in patent US8389509B2, “Substituted pyrazole compounds” (Bristol-Myers Squibb Company, priority 2009, dated 2013).
Counter-ions that a name gives are not always drawn.

Columns and labels:
S1P1 [1] = molecular target: T1, S1P1 (Homo sapiens, UniProt P21453); assay: S1P1 Binding Assay (33P-S1P competition, CHO membranes); details: membranes of CHO cells expressing human S1P1, 33P-S1P ligand; read-out: S1P1 B IC50
T1 construct: expressed in transfected cells; host or cells: CHO cells
Experimental: Membranes were prepared from CHO cells expressing human S1P1. Cells were dissociated in buffer containing 20 mM HEPES, pH 7.5, 50 mM NaCl, 2 mM EDTA and Protease Inhibitor cocktail (Roche), and disrupted on ice using the Polytron homogenizer. The homogenate was centrifuged at 20,000 rpm (48,000 g) and the supernatant was discarded. The membrane pellets were resuspended in buffer containing 50 mM HEPES, pH 7.5, 100 mM NaCl, 1 mM MgCl2, 2 mM EDTA and stored in aliquots at −80° C. after protein concentration determination.
Membranes (2 μg/well) and 0.03 nM final concentration of ^33P-S1P ligand (1 mCi/ml, American Radiolabeled Chemicals) were added to the compound plates. Binding was performed for 60 min at room temperature, terminated by collecting the membranes onto GF/B filter plates, and radioactivity was measured by TOPCOUNT®. The competition data of the test compounds over a range of concentrations was plotted as percentage inhibition of radioligand specific binding. The IC50 is defined as the concentration of competing ligand needed to reduce specific binding by 50%.
Compounds of the present invention and Comparative Compound A were tested in the S1P1 binding assay described hereinabove and the results rounded to two digits, shown in Table A were obtained. In some instances, the value is an average of multiple experiments where N is the number of experiments conducted that provided satisfactory dose response curves. When more than one batch of an example was tested, the value presented is from the batch which allowed a comparison of GTPγS S1P1 and GTPγS S1P3 in Method A (Data shown in Table B). Data was not averaged across different batches of an example compound.

S1P1 [2] = molecular target: T1, S1P1; assay: Method A: Receptor [35S] GTPγS Binding Assay, S1P1; assay type: biochemical; details: for EC50: Method A, S1P1/CHO cell membranes; for GTPγS S1P3/S1P1 (Method A): ratio of S1P3 EC50 to S1P1 EC50, Method A
Experimental: (§1) Method A: Receptor [35S] GTPγS Binding Assays
(§2) Compounds were loaded in a 384 FALCON® v-bottom plate (0.5 μl/well in a 3-fold dilution). Membranes prepared from S1P1/CHO cells or EDG3-Gal5-bla HEK293T cells were added to the compound plate (40 μl/well, final protein 3 μg/well) with MULTIDROP®. [^35S]GTP (1250 Ci/mmol, Perkin Elmer) was diluted in assay buffer: 20 mM HEPES, pH7.5, 10 mM MgCl2, 150 mM NaCl, 1 mM EGTA, 1 mM DTT, 10 μM GDP, 0.1% fatty acid free BSA, and 10 μg/ml Saponin to 0.4 nM. 40 μl of the [^35S] GTP solution was added to the compound plate with a final concentration of 0.2 nM. The reaction was kept at room temperature for 45 min. At the end of incubation, all the mixtures in the compound plate were transferred to a 384 well FB filter plates via GPCR robot system. The filter plate was washed with water 4 times by using the modified manifold Embla plate washer and dried at 60° C. for 45 min. 30 μA of MicroScint 20 scintillation fluid was added to each well for counting at Packard TOPCOUNT®. EC50 is defined as the agonist concentration that corresponds to 50% of the Ymax (maximal response) obtained for each individual compound tested.
(§3) Compounds of the present invention and Comparative Compound A were tested in the Receptor [^35S] GTPγS Binding Assays (Method A) and Receptor [^35S] In some instances, the value is an average of multiple experiments where N is the number of experiments conducted that provided satisfactory dose response curves. When more than one batch of an example was tested, the value presented is from a batch which allowed a comparison of GTPγS S1P1 and GTPγS S1P3 in which the most number of experiments were performed. Preferably, the same batch was examined in Method A and Method B. Data was not averaged across different batches of an example compound.

S1P1 [3] = molecular target: T1, S1P1; assay: Method B: Receptor [35S] GTPγS SPA Binding Assay, S1P1; assay type: biochemical; details: for EC50: Method B (SPA), S1P1 transfected CHO cell membranes; for GTPγS S1P3/S1P1 (Method B): ratio of S1P3 EC50 to S1P1 EC50, Method B
Experimental: (§4) Method B: Receptor [^35S] GTPγS SPA Binding Assays
(§5) Membranes prepared from S1P1 or S1P3 transfected CHO cells (2 μg protein) were incubated in 96-well white plates (CORNING® 3693) with test compounds diluted in DMSO, in 50 μl of reaction mixture containing 7.5 μA WGA-PVT beads (20 mg/ml), and 5 μM GDP, 20 mM HEPES pH 7.4, 100 mM NaCl, 1 mM EDTA, 5 mM MgCl2, 10 μg/ml saponin, 0.1% BSA, and 1 μM leupeptin. The assay was initiated with the addition of […] of 0.2 nM [^35S]-GTPγS (1250 Ci/mmol; NEN) in assay buffer. After 90 min incubation at room temperature, spin the plate at 1000 rpm for 5 min. The bound radionuclides were measured at TOPCOUNT®, expressed as % response relative to S1P (1 μM) activation. Data was analyzed using the four parameter logistic equation in Excel. The four parameters in the equation, Y=A+((B−A)/(1+((EC50/X)^D))), are described as following: A is the Y value (agonist activity) at the bottom plateau; B is the Y value at the top plateau; EC50 is the X value (agonist concentration) when the response is halfway between bottom and top; D is Hill coefficient. Curves were not generated for compounds having Ymax values were below 50%.
as §3

S1P3 [4] = molecular target: T2, S1P3 (Homo sapiens, UniProt Q99500); assay: Method A: Receptor [35S] GTPγS Binding Assay, S1P3; assay type: biochemical; set-up: expressed in transfected cells; details: EDG3-Gal5-bla HEK293T cell membranes
Experimental: as §1, §2, §3

S1P3 [5] = molecular target: T2, S1P3; assay: Method B: Receptor [35S] GTPγS SPA Binding Assay, S1P3; assay type: biochemical; set-up: expressed in transfected cells; host or cells: CHO cells; details: S1P3 transfected CHO cell membranes
Experimental: as §4, §5, §3

circulating lymphocytes [6] = assay: Blood Lymphocyte Reduction Assay (BLR) in rats; assay type: in vivo, Lewis rats; details: oral
Experimental: (§6) Blood Lymphocyte Reduction Assay (BLR) in Rodents
(§7) Lewis rats or BALB/c mice were dosed orally with test article (as a solution or suspension in the vehicle) or vehicle alone (polyethylene glycol 300, “PEG300”). Blood was drawn at 4 hr and 24 h by retro-orbital bleeding. Blood lymphocyte counts were determined on an ADVIA 120 Hematology Analyzer (Siemens Healthcare Diagnostics). The results were measured as a reduction in the percentage of circulating lymphocytes as compared to the vehicle treated group at the 4 hr and 24 hr measurement. The results represent the average results of all animals within each treatment group (n=3-4).
(§8) Compounds of the present invention were tested in the Blood Lymphocyte Reduction assay (BLR) described hereinabove and the results are shown in Table D for rats and Table E for mice.

circulating lymphocytes [7] = assay: Blood Lymphocyte Reduction Assay (BLR) in mice; assay type: in vivo, BALB/c mice; details: oral
Experimental: as §6, §7, §8

Lewis rats = assay: Rat Adjuvant Induced Arthritis Assay (AA); assay type: in vivo; details: for Paw Swelling (mL) on Day 21, Mean: vehicle mean 1.58
Experimental: Rat Adjuvant Induced Arthritis Assay (AA)
Male Lewis rats (150-175 g; Harlan, n=8 treatment group) were immunized at the base of the tail with 100 μl of 10 mg/ml freshly ground Mycobacterium butyricum (Difco Laboratories) in incomplete Freund's adjuvant (sigma). Animals were dosed once daily with the test article (as a solution or suspension in the vehicle) or vehicle alone (polyethylene glycol 300, “PEG300”) starting from the day of immunization. The volumes of their hind paws were measured in a water displacement plethysmometer (Ugo Basile, Italy). The baseline paw measurements were taken before onset of the disease (between day 7 to day 10). The paw measurements were then taken three times a week until the end of the study on day 20 to 21. All procedures involving animals were reviewed and approved by the Institutional Animal Care Use Committee.
Compounds of the present invention were tested in the Rat Adjuvant Induced Arthritis assay described hereinabove and the results are shown in Table F and Table G.

T2 sequence (Q99500 whole entry): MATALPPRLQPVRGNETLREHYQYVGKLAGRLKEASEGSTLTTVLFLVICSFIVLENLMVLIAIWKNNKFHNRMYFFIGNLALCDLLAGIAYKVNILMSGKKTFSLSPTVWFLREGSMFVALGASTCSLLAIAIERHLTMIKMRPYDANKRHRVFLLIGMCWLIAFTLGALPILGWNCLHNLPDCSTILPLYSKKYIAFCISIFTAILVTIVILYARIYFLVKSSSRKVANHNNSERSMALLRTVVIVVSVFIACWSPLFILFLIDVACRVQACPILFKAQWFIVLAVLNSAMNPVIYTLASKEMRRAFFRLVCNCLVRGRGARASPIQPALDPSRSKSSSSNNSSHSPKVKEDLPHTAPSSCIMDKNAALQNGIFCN
T1 sequence (P21453 whole entry): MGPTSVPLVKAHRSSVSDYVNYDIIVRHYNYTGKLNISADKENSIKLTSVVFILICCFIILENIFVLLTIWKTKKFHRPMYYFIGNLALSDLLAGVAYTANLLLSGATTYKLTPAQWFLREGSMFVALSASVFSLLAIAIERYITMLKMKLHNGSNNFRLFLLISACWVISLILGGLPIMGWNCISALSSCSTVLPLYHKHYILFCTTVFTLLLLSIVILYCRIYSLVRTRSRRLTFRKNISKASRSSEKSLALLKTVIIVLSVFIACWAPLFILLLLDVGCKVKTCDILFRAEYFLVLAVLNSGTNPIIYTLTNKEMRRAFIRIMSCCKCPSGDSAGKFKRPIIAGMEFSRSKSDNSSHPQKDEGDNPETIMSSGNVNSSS

Row | IC50 (S1P1 [1]) | EC50 (S1P1 [2]) | GTPγS S1P3/S1P1 (Method A) (S1P1 [2]) | EC50 (S1P1 [3]) | EC50 (S1P3 [4]) | EC50 (S1P3 [5]) | GTPγS S1P3/S1P1 (Method B) (S1P1 [3]) | Compound | also measured
1 | 30 nM | 260 nM | 50 | 17 nM | 13000 nM |  |  | Cc1c(-c2nc(-c3ccc(CN4CC(C(=O)O)C4)cc3)no2)cnn1-c1ccccc1 [Example 5, 1-(4-(5-(5-methyl-1-phenyl-1H-pyrazol-4-yl)-1,2,4-oxadiazol-3-yl)benzyl)azetidine-3-carboxylic acid] | 
2 | 0.12 nM | 4.2 nM | 690 |  | 2900 nM | 1300 nM |  | CCCc1c(-c2nc(-c3ccc(CN4CC(C(=O)O)C4)cc3)no2)cnn1-c1ccccn1 [Example 6, 1-(4-(5-(5-propyl-1-(pyridin-2-yl)-1H-pyrazol-4-yl)-1,2,4-oxadiazol-3-yl)benzyl)azetidine-3-carboxylic acid] | 
3 | 5.4 nM | 52 nM | 69 | 2.2 nM | 3600 nM | 4100 nM | 1,900 | O=C(O)C1CN(Cc2ccc(-c3noc(-c4cnn(-c5ccccc5)c4-c4cccnc4)n3)cc2)C1 [Example 15, 1-(4-(5-(1-Phenyl-5-(pyridin-3-yl)-1H-pyrazol-4-yl)-1,2,4-oxadiazol-3-yl)benzyl)azetidine-3-carboxylic acid, 2,2,2-trifluoroacetic acid salt] | 
4 | 0.3 nM | 1.9 nM |  | 0.17 nM |  | 2100 nM | 12,000 | O=C(O)C1CN(Cc2ccc(-c3noc(-c4cnn(-c5ccccc5)c4C(F)(F)F)n3)cc2)C1 [Example 2, 1-(4-(5-(1-Phenyl-5-(trifluoromethyl)-1H-pyrazol-4-yl)-1,2,4-oxadiazol-3-yl)benzyl)azetidine-3-carboxylic acid] | % reduction in lymphocytes at 4 hr. (circulating lymphocytes [6]; 0.04 mg/kg): 64%; % reduction in lymphocytes at 24 hr. (circulating lymphocytes [6]; 0.04 mg/kg): 8%; % reduction in lymphocytes at 4 hr. (circulating lymphocytes [6]; 0.2 mg/kg): 76%; % reduction in lymphocytes at 24 hr. (circulating lymphocytes [6]; 0.2 mg/kg): 55%; % reduction in lymphocytes at 4 hr. (circulating lymphocytes [6]; 1.0 mg/kg): 76%; % reduction in lymphocytes at 24 hr. (circulating lymphocytes [6]; 1.0 mg/kg): 79%; % reduction in lymphocytes at 4 hr. (circulating lymphocytes [7]; 0.04 mg/kg): 68%; % reduction in lymphocytes at 24 hr. (circulating lymphocytes [7]; 0.04 mg/kg): 5%; % reduction in lymphocytes at 4 hr. (circulating lymphocytes [7]; 0.2 mg/kg): 76%; % reduction in lymphocytes at 24 hr. (circulating lymphocytes [7]; 0.2 mg/kg): 64%; % reduction in lymphocytes at 4 hr. (circulating lymphocytes [7]; 1.0 mg/kg): 80%; % reduction in lymphocytes at 24 hr. (circulating lymphocytes [7]; 1.0 mg/kg): 82%; % reduction in lymphocytes at 4 hr. (circulating lymphocytes [7]; 3.0 mg/kg): 73%; % reduction in lymphocytes at 24 hr. (circulating lymphocytes [7]; 3.0 mg/kg): 89%; Paw Swelling (mL) on Day 21, Mean (Lewis rats; 0.2 mg/kg once daily): 02.12 mL; Paw Swelling (mL) on Day 21, Mean (Lewis rats; 1.0 mg/kg once daily): 0.91 mL; Paw Swelling (mL) on Day 21, Mean (Lewis rats; 3.0 mg/kg once daily): 0.19 mL; Paw Swelling (mL) on Day 21, Mean (Lewis rats; 10.0 mg/kg once daily): 0.10 mL; disease progression as measured by paw swelling (Lewis rats; Lewis rat, prophylactic oral dosing): inhibit disease progression
